Results taken from patent US20240368667A1, “RAPID, LABEL-FREE ANTIBIOTIC SUSCEPTIBILITY OF BACTERIA DIRECTLY FROM POSITIVE BLOOD OR BODILY FLUID/CULTURE” (priority 2021, published 2024).
Converted amounts (≈) assume the structure as drawn. Like-named read-outs stand apart in the source and are kept apart here.

How the values were obtained:
[1] = test system: E. coli; experiment: Direct flow cytometric AST (high-throughput flow cytometry, HTFC) of sucrose-recovered bacteria; type: cell-based, Escherichia coli; set-up: key to susceptibility classification, HTFC: (S) sensitive; (I) intermediate; (R) resistant; settings: sucrose-recovered, antibiotic 4 hours (37° C.); for MIC: Escherichia coli, 4 h, read-out: Minimum inhibitory concentration, HTFC
Procedure: (§1) AST workflow using bacteria recovered directly from positive blood culture. A 1-mL aliquot of bacteria recovered using separation method 2 was diluted 10-fold in CAMHB, the OD600 adjusted to ˜0.01, and a 50 μL aliquot distributed into each well of a 96-well plate containing CAMHB with and without ceftazidime, tobramycin, and either meropenem (E. coli and P. aeruginosa) or oxacillin (S. aureus). Following Clinical and Laboratory Standards Institute (CLSI) guidelines^33, 2% sodium chloride (NaCl) was present in wells containing oxacillin to assist in the detection of methicillin-resistant S. aureus (MRSA). […] To account for observed differences in doubling and lag times, E. coli and P. aeruginosa were incubated for 4 hours at 37° C., while S. aureus was incubated for 9 hours at 35° C. After incubation, antibiotic plates were removed from the incubator and directly stored on ice (i.e. no post-processing) until high-throughput flow cytometry (BD LSRFortessa with HTS-system, BD, Franklin Lakes, NJ). No-antibiotic controls and antibiotic-treated samples were handled identically.
(§2) MIC Determination by flow cytometry. Because antibiotic effects are observed in both the position of scatter signatures (morphology changes) and count rates (growth inhibition), a modified count rate, accounting for scatter position, was used to evaluate susceptibility. Briefly, no-antibiotic control populations (triplicate) were pooled, binned, and a convex hull boundary set at 1-standard deviation above the background (not including bins with zero counts) was drawn. […] The overlap ratio, measuring changes in morphology, was then computed by dividing the number of sample events within the no-antibiotic control boundary by the total number of events within the sample. As an increase in count rate attributed to viable bacteria in antibiotic-treated samples is not scientifically meaningful, the fractional overlap was multiplied by the minimum of the control and sample count rates to generate a modified count rate accounting for antibiotic-induced morphological changes. All modified count rates were normalized by the average of the no-antibiotic controls. For automatic MIC determination, normalized count rates corresponding to n (index of predicted MIC), n+1, n+2 were iteratively fit to a linear function with a frameshift of n+1 between iterations (FIGS. 8 and 9). […] A threshold of −0.01 instead of zero was used to mitigate the influence of small fluctuations in normalized count rates on susceptibility determinations.

[2] = test system: P. aeruginosa; experiment: as above; type: cell-based, Pseudomonas aeruginosa; set-up: key to susceptibility classification, HTFC: (S) sensitive; (I) intermediate; (R) resistant; settings: for MIC: Pseudomonas aeruginosa, read-out: Minimum inhibitory concentration, HTFC
Procedure: as §1, §2

[3] = test system: E. coli; experiment: Broth microdilution (BMD) MIC; type: cell-based, Escherichia coli; set-up: key to susceptibility classification, BMD: (S) sensitive; (I) intermediate; (R) resistant; settings: broth microdilution; for MIC: Escherichia coli, read-out: Minimum inhibitory concentration, BMD
Procedure: (§3) Microbroth dilution for minimum inhibitory concentrations (MIC) with and without sucrose recovery. To isolate bacteria without sucrose, culture media from positive BacT/alert FA PLUS aerobic culture bottles (bioMérieux, Durham, NC) was serially diluted and plated onto LB agar (Lennox; Sigma-Aldrich, St. Louis, MO). Bacterial suspensions were prepared by resuspending colonies in CAMHB with incubation on a MaxQ 4000 incubator shaker (Thermo Fisher Scientific, Waltham, MA) at 37° C. and ˜225 rpm for 3 hours. Bacteria recovered via Method 2 were diluted 10-fold in CAMHB. Following incubation or sucrose recovery and dilution, bacterial suspensions were adjusted to ˜0.004 OD600 with CAMHB and a 50-μL aliquot distributed to each well of a 96-well plate containing CAMHB with and without clinically relevant antibiotics (2-fold dilution series). Gram-negative plates included: ceftazidime (3rd generation cephalosporin, RPI corp., Mount Prospect, IL), cefepime (4th generation cephalosporin, Chem-Impex Int'l, Wood Dale, IL), meropenem (carbapenem, Tokyo Chemical Industry, Tokyo, Japan), levofloxacin (quinolone, Alfa Aesar, Haverhill, MA), and tobramycin (aminoglycoside, MP Biomedicals LLC, Santa Ana, CA), while S. aureus plates contained: oxacillin (beta-lactam, Sigma-Aldrich, St. Louis, MO), vancomycin (glycopeptide, Santa Cruz Biotechnology, Dallas, TX), erythromycin (macrolide, Sigma-Aldrich, St. Louis, MO), clindamycin ([…]), and ciprofloxacin (fluoroquinolone, Sigma-Aldrich, St. Louis, MO). Antibiotic plates were incubated at 37° C. for 16-20 hours (gram-negative) or 35° C. for 24 hours (S. aureus), at which time, plates were removed from the incubator and visually inspected for bacterial growth. The MIC was set at the lowest antibiotic concentration at which no growth was detected.

[4] = test system: P. aeruginosa 77; experiment: Microbroth dilution MIC with and without sucrose recovery; type: cell-based, Pseudomonas aeruginosa; settings: MIC given as multiple of S/I/R; for minimum inhibitory concentration (MIC), Standard: P. aeruginosa 77 recovered by standard plating
Procedure: as §3
Influence of Sucrose on Bacterial MIC. To rule out the potential effect of sucrose exposure in bacterial antibiotic susceptibility, microbroth dilution studies were performed on bacteria recovered using standard practices (i.e. plating following positive blood culture) and through selective lysis coupled with centrifugation through the sucrose cushion (Method 2).

[5] = P. aeruginosa Blood Culture B, antibiotic 4 hours (37° C.)
[6] = P. aeruginosa Blood Culture C, antibiotic 4 hours (37° C.)
[7] = P. aeruginosa PA7, antibiotic 4 hours (37° C.)
[8] = P. aeruginosa PA46, antibiotic 4 hours (37° C.)
[9] = P. aeruginosa PA49, antibiotic 4 hours (37° C.)
[10] = P. aeruginosa PA81, antibiotic 4 hours (37° C.)
[11] = P. aeruginosa PAO1, antibiotic 4 hours (37° C.)
[12] = 4 h, P. aeruginosa Blood Culture B, antibiotic 4 hours (37° C.)
[13] = 4 h, P. aeruginosa Blood Culture C, antibiotic 4 hours (37° C.)
[14] = 4 h, P. aeruginosa PA7, antibiotic 4 hours (37° C.)
[15] = 4 h, P. aeruginosa PA46, antibiotic 4 hours (37° C.)
[16] = 4 h, P. aeruginosa PA49, antibiotic 4 hours (37° C.)
[17] = 4 h, P. aeruginosa PA81, antibiotic 4 hours (37° C.)
[18] = PAO1, 4 h, P. aeruginosa PAO1, antibiotic 4 hours (37° C.)

SMILES: CC(C)(O/N=C(\C(=O)N[C@@H]1C(=O)N2C(C(=O)[O-])=C(C[n+]3ccccc3)CS[C@H]12)c1csc(N)n1)C(=O)O [Ceftazidime, ceftazidime]
- susceptibility classification, HTFC ([1]; E. coli Blood Culture A): (I)
- susceptibility classification, HTFC ([1]; E. coli Blood Culture B): (R)
- susceptibility classification, HTFC ([1]; E. coli EC37): (I)
- susceptibility classification, HTFC ([1]; E. coli EC-bank): (R)
- susceptibility classification, HTFC ([1]; E. coli Mu76): (S)
- susceptibility classification, HTFC ([1]; E. coli Mu218): (R)
- susceptibility classification, HTFC ([1]; E. coli Mu890): (S)
- MIC ([1]; E. coli Blood Culture A): 8 µg/mL (≈ 14.6 µM)
- MIC ([1]; E. coli Blood Culture B): 32 µg/mL (≈ 58.5 µM)
- MIC ([1]; E. coli EC37): 8 µg/mL (≈ 14.6 µM)
- MIC ([1]; E. coli EC-bank): 16 µg/mL (≈ 29.3 µM)
- MIC ([1]; E. coli Mu76): 1 µg/mL (≈ 1.83 µM)
- MIC ([1]; E. coli Mu218): 16 µg/mL (≈ 29.3 µM)
- MIC ([1]; E. coli Mu890): ≤ 0.25 µg/mL
- susceptibility classification, HTFC [2, 5]: (S)
- susceptibility classification, HTFC [2, 6]: (S)
- susceptibility classification, HTFC [2, 7]: (S)
- susceptibility classification, HTFC [2, 8]: (S)
- susceptibility classification, HTFC [2, 9]: (S)
- susceptibility classification, HTFC [2, 10]: (S)
- susceptibility classification, HTFC [2, 11]: (S)
- MIC [2, 12]: 4 µg/mL (≈ 7.32 µM)
- MIC [2, 13]: 2 µg/mL (≈ 3.66 µM)
- MIC [2, 14]: 8 µg/mL (≈ 14.6 µM)
- MIC [2, 15]: 2 µg/mL (≈ 3.66 µM)
- MIC [2, 16]: 4 µg/mL (≈ 7.32 µM)
- MIC [2, 17]: 8 µg/mL (≈ 14.6 µM)
- MIC [2, 18]: 1 µg/mL (≈ 1.83 µM)
- susceptibility classification, BMD ([3]; E. coli Blood Culture A): (R)
- susceptibility classification, BMD ([3]; E. coli Blood Culture B): (R)
- susceptibility classification, BMD ([3]; E. coli EC37): (R)
- susceptibility classification, BMD ([3]; E. coli EC-bank): (R)
- susceptibility classification, BMD ([3]; E. coli Mu76): (S)
- susceptibility classification, BMD ([3]; E. coli Mu218): (R)
- susceptibility classification, BMD ([3]; E. coli Mu890): (S)
- MIC ([3]; E. coli Blood Culture A): 16 µg/mL (≈ 29.3 µM)
- MIC ([3]; E. coli Blood Culture B): 64 µg/mL (≈ 117 µM)
- MIC ([3]; E. coli EC37): 32 µg/mL (≈ 58.5 µM)
- MIC ([3]; E. coli EC-bank): 32 µg/mL (≈ 58.5 µM)
- MIC ([3]; E. coli Mu76): 2 µg/mL (≈ 3.66 µM)
- MIC ([3]; E. coli Mu218): 32 µg/mL (≈ 58.5 µM)
- MIC ([3]; E. coli Mu890): 0.5 µg/mL (≈ 0.915 µM)
- minimum inhibitory concentration (MIC), Standard [4]: ½S
- minimum inhibitory concentration (MIC), Sucrose ([4]; P. aeruginosa 77 recovered through sucrose (Method 2)): ¼S

SMILES: C[C@@H](O)[C@H]1C(=O)N2C(C(=O)O)=C(S[C@@H]3CN[C@H](C(=O)N(C)C)C3)[C@H](C)[C@H]12 [Meropenem, meropenem]
- susceptibility classification, HTFC ([1]; E. coli Blood Culture A): (S)
- susceptibility classification, HTFC ([1]; E. coli Blood Culture B): (S)
- susceptibility classification, HTFC ([1]; E. coli EC37): (S)
- susceptibility classification, HTFC ([1]; E. coli EC-bank): (S)
- susceptibility classification, HTFC ([1]; E. coli Mu76): (R)
- susceptibility classification, HTFC ([1]; E. coli Mu218): (S)
- susceptibility classification, HTFC ([1]; E. coli Mu890): (S)
- MIC ([1]; E. coli Blood Culture A): ≤ 0.06 µg/mL
- MIC ([1]; E. coli Blood Culture B): ≤ 0.06 µg/mL
- MIC ([1]; E. coli EC37): ≤ 0.06 µg/mL
- MIC ([1]; E. coli EC-bank): ≤ 0.06 µg/mL
- MIC ([1]; E. coli Mu76): 4 µg/mL (≈ 10.4 µM)
- MIC ([1]; E. coli Mu218): ≤ 0.06 µg/mL
- MIC ([1]; E. coli Mu890): ≤ 0.06 µg/mL
- susceptibility classification, HTFC [2, 5]: (S)
- susceptibility classification, HTFC [2, 6]: (S)
- susceptibility classification, HTFC [2, 7]: (S)
- susceptibility classification, HTFC [2, 8]: (S)
- susceptibility classification, HTFC [2, 9]: (S)
- susceptibility classification, HTFC [2, 10]: (R)
- susceptibility classification, HTFC [2, 11]: (S)
- MIC [2, 12]: 2 µg/mL (≈ 5.22 µM)
- MIC [2, 13]: 0.125 µg/mL (≈ 0.326 µM)
- MIC [2, 14]: 2 µg/mL (≈ 5.22 µM)
- MIC [2, 15]: 1 µg/mL (≈ 2.61 µM)
- MIC [2, 16]: 0.5 µg/mL (≈ 1.3 µM)
- MIC [2, 17]: 8 µg/mL (≈ 20.9 µM)
- MIC [2, 18]: 2 µg/mL (≈ 5.22 µM)
- susceptibility classification, BMD ([3]; E. coli Blood Culture A): (S)
- susceptibility classification, BMD ([3]; E. coli Blood Culture B): (S)
- susceptibility classification, BMD ([3]; E. coli EC37): (S)
- susceptibility classification, BMD ([3]; E. coli EC-bank): (I)
- susceptibility classification, BMD ([3]; E. coli Mu76): (S)
- susceptibility classification, BMD ([3]; E. coli Mu218): (S)
- susceptibility classification, BMD ([3]; E. coli Mu890): (S)
- MIC ([3]; E. coli Blood Culture A): ≤ 0.06 µg/mL
- MIC ([3]; E. coli Blood Culture B): ≤ 0.06 µg/mL
- MIC ([3]; E. coli EC37): ≤ 0.06 µg/mL
- MIC ([3]; E. coli EC-bank): 2 µg/mL (≈ 5.22 µM)
- MIC ([3]; E. coli Mu76): 0.5 µg/mL (≈ 1.3 µM)
- MIC ([3]; E. coli Mu218): ≤ 0.06 µg/mL
- MIC ([3]; E. coli Mu890): ≤ 0.06 µg/mL
- minimum inhibitory concentration (MIC), Standard [4]: ⅛S
